Assay results as given in patent EP3375430A1, “FRAGRANCE COMPOSITIONS” (Takasago International Corporation, priority 2017, dated 2018).
One block for each compound: values may come before it.

Tests used:
[1] = Amount of fragrance ingredients retained on paper blotter after evaporation (ethanol extraction, GC-MS); format: physicochemical
Description: A fragrance (hereafter fragrance TAK, the formulation of which is shown in table 1) was formulated in a typical Eau de Toilette (EdT1) or in fragrance compositions according to the invention (compositions C1 to C4), as shown in table 2. The amount of individual fragrance ingredients retained on paper substrate (blotter) after set time periods was assessed by the following method.
100µL samples of either EdT1 or compositions C1 to C4 were applied to 4.5cm long standard paper blotters with a microsyringe. Three replicate blotters were prepared for each extraction time. After the appropriate evaporation time each of the 3 blotters was transferred to a 30mL glass bottle. 3mL of ethanol and 50µL of a 1% solution of methyl decanoate in ethanol as an internal standard were added. The bottle was sealed and placed on a roller bed to extract the blotter for 1 hour. A sample of the extracting solution was transferred to a vial which was sealed and analysed by gas chromatography (GC 6890) with a Mass Spectrometer detector (MS 5973) using the method described below. The results of the three replicate measurements were averaged. At exact times the same extraction was repeated on the remaining blotters which were stored on a warm surface at 32°C open to the air to allow evaporation. The gas chromatography conditions were as given below.
• Initial Temp: 50°C • Initial Time: 2 min • Rate: 10°C /min • Final Temp: 280°C • Final Time: 5 min • Run Time: 30 min
• Column: HP-5MS 30m * 0.25mm * 0.25µm • Gas: Helium • Constant Pressure 18.55 psi
• Split mode Ratio 40:1 • Inlet Temp: 250°C
• MS 5973 • Mass range: 35 to 350 • Threshold: 100 • Mass Quad: 150°C • Mass Source: 230°C
To simplify the results the average amount of each fragrance ingredient from the 3 samples measured at time zero was set at 100% and all other measurements were then related to that value so tables 3 to 6 show decreasing amounts of fragrance ingredients as a percentage of the initial amount.
The method of example 1 was repeated using a commercial fragrance (hereafter fragrance COM1, the formulation of which is given in table 7) formulated in a typical Eau de Toilette (EdT2) or in fragrance compositions according to the invention (compositions C5 and C6), as shown in table 8.

[2] = Headspace concentration of fragrance ingredients over blotter (thermal desorption GC-MS); format: physicochemical
Description: The headspace concentration of individual ingredients of fragrance TAK, as formulated in either a conventional EdT (EdT1) or a fragrance composition of the invention (C1), was assessed by the method described below.
A 10 cm length was cut from a standard perfumers' blotter. A sample of 100µL volume was applied to the upper surface of the blotter with a syringe. The blotter was placed on a hot plate thermostatted at 32°C and left to equilibrate for 5 minutes. Two desorption tubes (6cm length 4mm internal diameter) each containing 2 cm length of Tenax TA adsorbent were fitted to the glass part of a headspace apparatus shown in figure 9. The glass part was fitted over the blotter, a metering pump was connected to one of the desorption tubes and air was drawn through the apparatus flushing the headspace over the blotter at a rate of 17mL/min. Sampling continued for about 16.5 minutes until 280mL of air had been extracted. Then the outlet desorption tube was analysed by gas chromatography as described below. The glass part was removed from the blotter which was left on the hotplate until the next sampling time when two fresh desorption tubes were fitted and the extraction procedure repeated for a further 280mL of extracted headspace.
• Initial Temp: 50°C • Initial Time: 5 min • Rate: 3°C /min • Final Temp: 250°C • Final Time: 20 min • Run Time: 91.67 min
• Column: HP-5MS 30m * 0.25mm * 0.25µm • Gas: Helium • Constant pressure 12.675 psi
• Initial Temp: -30°C • Equilibration Time: 0.05 min • Initial Time: 0.00 min • Rate 12°C / min • End Temp: 260°C • Hold Time: 10 min
Temperature program • Initial Temp: 35°C • Delay Time: 0.30 min • Initial Time: 0.00 min • Rate: 30°C / min • End Temp: 250°C • Hold Time: 5.00 min
TDU Settings • Transfer Temp: 250°C • Transfer Temp Mode: Fixed • Desorption Mode: splitless • Sample mode: Retain tube - standby cooling • Standby Temp: 50°C
Detector MS • MS 5973 • Mass range: 35 to 350 • Threshold: 150 • Mass Quad: 150°C • Mass Source: 230°C
Following the procedure of example 2, the headspace concentration of representative ingredients of fragrance COM1 was determined. COM1 was dosed at 5 and 20 % either in control EdT3 and EdT4 or in compositions of the invention C7 and C8, as shown in table 10.
The headspace concentration of individual ingredients of fragrance TAK (see Table 1), as formulated in either a conventional EdT (EdT1) or fragrance compositions of the invention (C14, C15), was assessed by the method described in example 2.

amount of fragrance ingredient retained on blotter (percentage of the initial amount) ([1]; Table 9, fragrance COM1 in C5, T0 + 15 min): 80.96%
amount of fragrance ingredient retained on blotter (percentage of the initial amount) ([1]; Table 9, fragrance COM1 in C5, T0 + 480 min): 8.4%
amount of fragrance ingredient retained on blotter (percentage of the initial amount) ([1]; Table 9, fragrance COM1 in C5, T0 +1440 min): 2.22%
amount of fragrance ingredient retained on blotter (percentage of the initial amount) ([1]; Table 9, fragrance COM1 in C6, T0 + 15 min): 70.8%
amount of fragrance ingredient retained on blotter (percentage of the initial amount) ([1]; Table 9, fragrance COM1 in C6, T0 + 480 min): 6.9%
amount of fragrance ingredient retained on blotter (percentage of the initial amount) ([1]; Table 9, fragrance COM1 in C6, T0 +1440 min): 2.6%
amount of fragrance ingredient retained on blotter (percentage of the initial amount) ([1]; Table 9, fragrance COM1 in EdT2, C5 or C6, T0, set at 100% (normalisation)): 100%
amount of fragrance ingredient retained on blotter (percentage of the initial amount) ([1]; Table 9, fragrance COM1 in EdT2, T0 + 15 min): 67.48%
amount of fragrance ingredient retained on blotter (percentage of the initial amount) ([1]; Table 9, fragrance COM1 in EdT2, T0 + 480 min): 9.91%
amount of fragrance ingredient retained on blotter (percentage of the initial amount) ([1]; Table 9, fragrance COM1 in EdT2, T0 +1440 min): 7.26%
headspace concentration in composition C8 compared to control EdT4 ([2]; COM1 dosed at 20 wt%, up to 8 hours, Figures 8 to 10): significantly higher
SMILES: C=CC(C)(O)CCC=C(C)CC (mixture of isomers) [Ethyl Linalool, Ethyl linalool]

amount of fragrance ingredient retained on blotter (percentage of the initial amount) ([1]; Table 3, fragrance TAK in C1, 15 min, 32°C): 76%
amount of fragrance ingredient retained on blotter (percentage of the initial amount) ([1]; Table 3, fragrance TAK in C1, 60 min, 32°C): 77%
amount of fragrance ingredient retained on blotter (percentage of the initial amount) ([1]; Table 3, fragrance TAK in C1, 120 min, 32°C): 75%
amount of fragrance ingredient retained on blotter (percentage of the initial amount) ([1]; Table 3, fragrance TAK in C1, 240 min, 32°C): 73%
amount of fragrance ingredient retained on blotter (percentage of the initial amount) ([1]; Table 3, fragrance TAK in C1, 480 min, 32°C): 60%
amount of fragrance ingredient retained on blotter (percentage of the initial amount) ([1]; Table 3, fragrance TAK in EdT1, 15 min, 32°C): 96%
amount of fragrance ingredient retained on blotter (percentage of the initial amount) ([1]; Table 3, fragrance TAK in EdT1, 60 min, 32°C): 87%
amount of fragrance ingredient retained on blotter (percentage of the initial amount) ([1]; Table 3, fragrance TAK in EdT1, 120 min, 32°C): 85%
amount of fragrance ingredient retained on blotter (percentage of the initial amount) ([1]; Table 3, fragrance TAK in EdT1, 240 min, 32°C): 80%
amount of fragrance ingredient retained on blotter (percentage of the initial amount) ([1]; Table 3, fragrance TAK in EdT1, 480 min, 32°C): 32%
amount of fragrance ingredient retained on blotter (percentage of the initial amount) ([1]; Table 3, fragrance TAK in EdT1 or C1, T0, set at 100% (normalisation)): 100%
amount of fragrance ingredient retained on blotter (percentage of the initial amount) ([1]; Table 4, fragrance TAK in C2, 15 min, 32°C): 99%
amount of fragrance ingredient retained on blotter (percentage of the initial amount) ([1]; Table 4, fragrance TAK in C2, 480 min, 32°C): 63%
amount of fragrance ingredient retained on blotter (percentage of the initial amount) ([1]; Table 4, fragrance TAK in EdT1, 15 min, 32°C): 84%
amount of fragrance ingredient retained on blotter (percentage of the initial amount) ([1]; Table 4, fragrance TAK in EdT1, 480 min, 32°C): 32%
amount of fragrance ingredient retained on blotter (percentage of the initial amount) ([1]; Table 4, fragrance TAK in EdT1 or C2, T0, set at 100% (normalisation)): 100%
amount of fragrance ingredient retained on blotter (percentage of the initial amount) ([1]; Table 5, fragrance TAK in C3, 15 min, 32°C): 78%
amount of fragrance ingredient retained on blotter (percentage of the initial amount) ([1]; Table 5, fragrance TAK in C3, 60 min, 32°C): 84%
amount of fragrance ingredient retained on blotter (percentage of the initial amount) ([1]; Table 5, fragrance TAK in C3, 120 min, 32°C): 83%
amount of fragrance ingredient retained on blotter (percentage of the initial amount) ([1]; Table 5, fragrance TAK in C3, 240 min, 32°C): 82%
amount of fragrance ingredient retained on blotter (percentage of the initial amount) ([1]; Table 5, fragrance TAK in C3, 480 min, 32°C): 61%
amount of fragrance ingredient retained on blotter (percentage of the initial amount) ([1]; Table 5, fragrance TAK in C3, 1440 min, 32°C): 50%
amount of fragrance ingredient retained on blotter (percentage of the initial amount) ([1]; Table 5, fragrance TAK in EdT1, 15 min, 32°C): 96%
amount of fragrance ingredient retained on blotter (percentage of the initial amount) ([1]; Table 5, fragrance TAK in EdT1, 60 min, 32°C): 87%
amount of fragrance ingredient retained on blotter (percentage of the initial amount) ([1]; Table 5, fragrance TAK in EdT1, 120 min, 32°C): 85%
amount of fragrance ingredient retained on blotter (percentage of the initial amount) ([1]; Table 5, fragrance TAK in EdT1, 240 min, 32°C): 80%
amount of fragrance ingredient retained on blotter (percentage of the initial amount) ([1]; Table 5, fragrance TAK in EdT1, 480 min, 32°C): 32%
amount of fragrance ingredient retained on blotter (percentage of the initial amount) ([1]; Table 5, fragrance TAK in EdT1, 1440 min, 32°C): 14%
amount of fragrance ingredient retained on blotter (percentage of the initial amount) ([1]; Table 5, fragrance TAK in EdT1 or C3, T0, set at 100% (normalisation)): 100%
amount of fragrance ingredient retained on blotter (percentage of the initial amount) ([1]; Table 6, fragrance TAK in C4, 15 min, 32°C): 92%
amount of fragrance ingredient retained on blotter (percentage of the initial amount) ([1]; Table 6, fragrance TAK in C4, 60 min, 32°C): 84%
amount of fragrance ingredient retained on blotter (percentage of the initial amount) ([1]; Table 6, fragrance TAK in C4, 120 min, 32°C): 93%
amount of fragrance ingredient retained on blotter (percentage of the initial amount) ([1]; Table 6, fragrance TAK in C4, 240 min, 32°C): 94%
amount of fragrance ingredient retained on blotter (percentage of the initial amount) ([1]; Table 6, fragrance TAK in C4, 480 min, 32°C): 65%
amount of fragrance ingredient retained on blotter (percentage of the initial amount) ([1]; Table 6, fragrance TAK in EdT1, 15 min, 32°C): 96%
amount of fragrance ingredient retained on blotter (percentage of the initial amount) ([1]; Table 6, fragrance TAK in EdT1, 60 min, 32°C): 87%
amount of fragrance ingredient retained on blotter (percentage of the initial amount) ([1]; Table 6, fragrance TAK in EdT1, 120 min, 32°C): 85%
amount of fragrance ingredient retained on blotter (percentage of the initial amount) ([1]; Table 6, fragrance TAK in EdT1, 240 min, 32°C): 80%
amount of fragrance ingredient retained on blotter (percentage of the initial amount) ([1]; Table 6, fragrance TAK in EdT1, 480 min, 32°C): 32%
amount of fragrance ingredient retained on blotter (percentage of the initial amount) ([1]; Table 6, fragrance TAK in EdT1 or C4, T0, set at 100% (normalisation)): 100%
headspace concentration in composition C1 compared to control EdT1 ([2]; fragrance TAK, T0 + 8h, Figure 4): lower
SMILES: CC/C=C\CCOC(=O)c1ccccc1O [Cis 3-hexenyl salicylate, Cis-3-hexenyl salicylate]
